Source: ChEMBL document CHEMBL1201862, “PubChem BioAssay data set” (2004)
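Five concentrations, 48 hours, 96-well plates. GI50: concentration for 50% inhibition of growth.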 Calls of active or inactive are those of the source. Rule as the data show it: active = GI50 up to about 1.1 µM and inactive = higher.

Assays:
Experiment in all cases: inhibition of tumour cell growth, NCI panel, 48 h
A549 = tested on: A549
CCRF-CEM = tested on: CCRF-CEM
EKVX = tested on: EKVX
HCT-116 = tested on: HCT-116
HOP-92 = tested on: HOP-92
HT-29 = tested on: HT-29
KM12 = tested on: KM12
MOLT-4 = tested on: MOLT-4
NCI-H226 = tested on: NCI-H226
NCI-H460 = tested on: NCI-H460
NCI-H522 = tested on: NCI-H522
OVCAR-4 = tested on: OVCAR-4
OVCAR-5 = tested on: OVCAR-5
OVCAR-8 = tested on: OVCAR-8
RXF 393 = tested on: RXF 393
SF-268 = tested on: SF-268
SK-MEL-28 = tested on: SK-MEL-28
SK-MEL-5 = tested on: SK-MEL-5
SN12C = tested on: SN12C
UACC-62 = tested on: UACC-62

Measured: GI50

CC(=O)OC12OC(C)(C3C(=O)N(c4ccccc4)C(=O)C31)N(c1ccccc1)C2=O (stereo not drawn)
inactive: A549 > 100 µM | CCRF-CEM > 100 µM | EKVX 84.7 µM | HCT-116 > 100 µM | HOP-92 45.7 µM | HT-29 > 100 µM | KM12 > 100 µM | MOLT-4 > 100 µM | NCI-H226 > 100 µM | NCI-H460 > 100 µM | NCI-H522 > 100 µM | OVCAR-4 51.4 µM | OVCAR-5 > 100 µM | OVCAR-8 > 100 µM | RXF 393 > 100 µM | SF-268 > 100 µM | SK-MEL-28 > 100 µM | SK-MEL-5 > 100 µM | SN12C > 100 µM | UACC-62 > 100 µM

COc1cc(S(=O)(=O)Nc2ccc(-c3csc(N4C(=O)C(Cl)C4c4cccs4)n3)cc2)ccc1Cl (stereo not drawn)
inactive: A549 > 100 µM | CCRF-CEM 4.1 µM | EKVX 7.55 µM | HCT-116 98.9 µM | HOP-92 19.7 µM | HT-29 > 100 µM | KM12 49.2 µM | MOLT-4 11.4 µM | NCI-H226 46 µM | NCI-H460 71.6 µM | NCI-H522 4.35 µM | OVCAR-4 21.6 µM | OVCAR-5 > 100 µM | OVCAR-8 70.6 µM | RXF 393 23.5 µM | SF-268 39 µM | SK-MEL-28 > 100 µM | SK-MEL-5 93.8 µM | SN12C 82.6 µM | UACC-62 22.2 µM

CC(CO)CCNc1ncnc2c1ncn2CCC(=O)OC(C)(C)C (stereo not drawn)
inactive: A549 > 100 µM | CCRF-CEM > 100 µM | EKVX > 100 µM | HCT-116 > 100 µM | HOP-92 > 100 µM | HT-29 > 100 µM | KM12 > 100 µM | MOLT-4 > 100 µM | NCI-H226 > 100 µM | NCI-H460 > 100 µM | NCI-H522 > 100 µM | OVCAR-4 > 100 µM | OVCAR-5 > 100 µM | OVCAR-8 > 100 µM | RXF 393 > 100 µM | SF-268 > 100 µM | SK-MEL-28 > 100 µM | SK-MEL-5 > 100 µM | SN12C > 100 µM | UACC-62 > 100 µM

CC(C)(C)OC(=O)N(CCCCNC(=O)OCc1ccccc1)CCCNC(=O)OCc1ccccc1
inactive: A549 9.71 µM | CCRF-CEM 16.3 µM | EKVX 50.4 µM | HCT-116 41.8 µM | HOP-92 23.4 µM | HT-29 18.5 µM | KM12 35.5 µM | MOLT-4 3.27 µM | NCI-H226 > 100 µM | NCI-H460 38.2 µM | NCI-H522 4.06 µM | OVCAR-4 33 µM | OVCAR-5 > 100 µM | OVCAR-8 32.4 µM | RXF 393 30 µM | SF-268 > 100 µM | SK-MEL-28 > 100 µM | SK-MEL-5 5.93 µM | SN12C 53.3 µM | UACC-62 87.9 µM

CNC(=S)N/N=C1\CC(c2ccccc2)Oc2ccccc21 (stereo not drawn)
inactive: A549 > 100 µM | CCRF-CEM > 100 µM | EKVX > 100 µM | HCT-116 > 100 µM | HOP-92 18.3 µM | HT-29 > 100 µM | KM12 > 100 µM | MOLT-4 > 100 µM | NCI-H226 43.7 µM | NCI-H460 > 100 µM | NCI-H522 > 100 µM | OVCAR-4 18.6 µM | OVCAR-5 > 100 µM | OVCAR-8 > 100 µM | RXF 393 > 100 µM | SF-268 > 100 µM | SK-MEL-28 > 100 µM | SK-MEL-5 88.5 µM | SN12C > 100 µM | UACC-62 > 100 µM

N=C1N(/N=C/c2ccccn2)/C(=N\c2ccccc2)C(=S)N1c1ccccc1
inactive: A549 5.51 µM | CCRF-CEM 2.05 µM | EKVX 3.41 µM | HCT-116 2.87 µM | HOP-92 10.8 µM | HT-29 2.97 µM | KM12 4.01 µM | MOLT-4 > 100 µM | NCI-H226 13.5 µM | NCI-H460 4.15 µM | NCI-H522 1.92 µM | OVCAR-4 11.7 µM | OVCAR-5 4.74 µM | OVCAR-8 3.6 µM | RXF 393 3.15 µM | SF-268 5.12 µM | SK-MEL-28 11 µM | SK-MEL-5 4.48 µM | SN12C 5.31 µM | UACC-62 1.17 µM

O=C/C(=C(/Cl)c1ccc(O)cc1)c1ccccc1
inactive: A549 32.1 µM | CCRF-CEM 15.2 µM | EKVX 28.2 µM | HCT-116 18.1 µM | HOP-92 16.6 µM | HT-29 27.1 µM | KM12 35.6 µM | MOLT-4 16.6 µM | NCI-H226 > 100 µM | NCI-H460 33.2 µM | NCI-H522 13.3 µM | OVCAR-4 22.2 µM | OVCAR-5 > 100 µM | OVCAR-8 35.9 µM | RXF 393 21.6 µM | SF-268 25 µM | SK-MEL-28 20.7 µM | SK-MEL-5 23 µM | SN12C 24.6 µM | UACC-62 13.2 µM

Cc1ccc2nc3c(C)c(Cl)c(=O)cc-3sc2c1
inactive: A549 16.7 µM | CCRF-CEM 3.63 µM | EKVX 38.8 µM | HCT-116 17.8 µM | HOP-92 34.4 µM | HT-29 60.5 µM | KM12 23.1 µM | MOLT-4 4.98 µM | NCI-H226 5.06 µM | NCI-H460 23.1 µM | NCI-H522 11.1 µM | OVCAR-4 18 µM | OVCAR-5 34.3 µM | OVCAR-8 11.2 µM | RXF 393 22.9 µM | SF-268 26.8 µM | SK-MEL-28 32.7 µM | SK-MEL-5 13.6 µM | SN12C 26.6 µM | UACC-62 8.57 µM

N#Cc1c(O)cc(=O)n2c1[nH]c1ccccc12
inactive: A549 > 100 µM | CCRF-CEM > 100 µM | EKVX > 100 µM | HCT-116 > 100 µM | HOP-92 > 100 µM | HT-29 > 100 µM | KM12 > 100 µM | MOLT-4 > 100 µM | NCI-H226 > 100 µM | NCI-H460 > 100 µM | NCI-H522 > 100 µM | OVCAR-4 > 100 µM | OVCAR-5 > 100 µM | OVCAR-8 > 100 µM | RXF 393 > 100 µM | SF-268 > 100 µM | SK-MEL-5 > 100 µM | SN12C > 100 µM | UACC-62 > 100 µM

C=C1C(OC2O[C@@H]3O[C@@]4(C)CC[C@H]5[C@H](C)CC[C@@H](C2=C)[C@@]35O4)O[C@@H]2O[C@@]3(C)CC[C@H]4[C@H](C)CC[C@@H]1[C@@]24O3 (stereo partly drawn)
inactive: A549 > 50 µM | CCRF-CEM > 50 µM | EKVX > 50 µM | HCT-116 > 50 µM | HOP-92 > 50 µM | HT-29 > 50 µM | KM12 > 50 µM | MOLT-4 > 50 µM | NCI-H226 > 50 µM | NCI-H460 > 50 µM | NCI-H522 > 50 µM | OVCAR-4 > 50 µM | OVCAR-5 > 50 µM | RXF 393 > 50 µM | SF-268 > 50 µM | SK-MEL-28 > 50 µM | SK-MEL-5 > 50 µM | SN12C > 50 µM | UACC-62 > 50 µM
